Assay results: patent publication US20040162247A1, “Therapeutic agent or osteoporosis comprising an active ingredient of quercetin derivatives” (priority 2000, published 2004)
Several values for one entry are separate records, joined by “and”; a condition that tells them apart may be missing. Identical values can stand only once. Like-named read-outs stand apart in the source and are kept apart here.

Experiments:
[1] = rat, in vivo
Description: (§1) Female SD (Sprague-Dawley) rats, a model animal for type I osteoporosis occurring after menopause were employed for evaluating pharmacological effectiveness of quercetin. Female rats (10 weeks old) weighing 200 to 300 g, obtained from the Korea Research Institute of Chemical Technology were employed as experimental animals. Experiment was carried out by the procedure which comprises removing ovary, administration of agents to the each group of rats, and at certain days after ovariectomy, the rats were sacrificed and subjected to analyses including measurement of body weight, examination of internal organs, measurement of trabecular bone area, complete blood count, and biochemical analyses of plasma.
(§2) The Sham group, animals operated upon for the surgery as in the ovariectomized rats except for removing ovary, were employed to compare the changes caused solely by ovariectomy in control group which were ovariectomized but no agent was administered. Control group was employed to compare the changes caused by administration of agents in test group which were ovariectomized and administered with testing agents.
(§3) During the period of administration, blood was sampled once a week. After 9-week administration, entire blood was withdrawn with heparin treatment. Following complete blood count (CBC), the blood was centrifuged at 3,000 rpm for 20 minutes to obtain plasma which was stored at −70° C. until use. For measurement of bone mineral density, the lumbar spine L5 and L6, and right tibia were removed and stored separately in 4% (v/v) formalin solution.

mice = settings: orally administered, M. Sullivan et al. 1951; cited from earlier work
osteoclasts = assay: Osteoclast proliferation, count of TRAP-positive multinucleated cells; format: cell-based, ICR mice; settings: for Number of osteoclast (% of control group): day 2, TRAP staining
Description: ICR mice (Korea Research Institute of Chemical Technology, Taejon, Korea) were fed with calcium deficient diet (ICN Biomedicals, Inc., Ohio, U.S.A.) for 4 weeks to activate osteoclasts. The right and left tibiae and femurs of the calcium […] were removed avoiding contamination of surrounding muscle tissues. Femurs and right and left tibiae, classified on the clean bench and kept on ice separately, were added into the α-MEM containing 100 μg/ml streptomycin and then vigorously shaken respectively to extract osteoclasts into the medium. After kept on ice for 5 minutes, the cell suspension was centrifuged at 800×g for 3 minutes and the cell pellet was resuspended in a α-MEM nutrient medium supplemented with 10% FBS, 100 μg/ml streptomycin and 100 unit/ml penicillin. The cell suspension was distributed into wells of a 24-well plate at a cell number of 3.5×10^6/well. To the osteoclasts obtained in Example 2-1 above, quercetin was added to yield concentrations of 1×10^−8 to 1×10^−2 mg/ml. On day 2, the cells were subjected to tartrate-resistant acid phosphatase (TRAP) staining using a commercially available kit (Sigma Chemical Co., U.S.A.), followed by counting of osteoclasts which are TRAP-positive multinucleated cells (MNC), judged by more than three nuclei in a cell stained red (see: Table 2).

[2] = Body weight of ovariectomized rats during drug administration
Description: as §1, §2, §3

ovariectomized rats = assay: Wet weight of internal organs of ovariectomized rats after drug administration; settings: OVX rats
Description: To find out quercetin effect on internal organ of test animal, liver, kidney, brain, uterus, skin, and tibia were removed from the test animals administered with test agents for 9 weeks after operation and wet weight of each organ was measured (see: Table 4).

[3] = 9 weeks i.p. (E2 1 μg/kg/day; quercetin, genistein 10 mg/kg/day)

In the case of `O=c1c(O)c(-c2ccc(O)c(O)c2)oc2cc(O)cc(O)c12` [Quercetin, quercetin], the “Weight” value [1] is given as 221.87 ± 7.57 g, the LD50 (mice) is given as “not less than 160 mg/kg” and the “Inhibitory effect on the osteoclast proliferation (in words)” value (osteoclasts; 1×10^−8 to 1×10^−4 mg/ml) is given as “little inhibitory effect”. For the same molecule, the “Number of osteoclast (% of control group)” value (osteoclasts; 1 × 10^−2 mg/ml) was 25 % of control group and 24.7 ± 5.7 % of control group, the “Number of osteoclast (% of control group)” value (osteoclasts; 1 × 10^−3 mg/ml) was 61 % of control group and 61.1 ± 4.1 % of control group and the “Number of osteoclast (% of control group)” value (osteoclasts; 1 × 10^−4 mg/ml) was 89.6 ± 3.2 % of control group. For the same molecule, the “Number of osteoclast (% of control group)” value (osteoclasts; 1 × 10^−6 mg/ml) was 96.8 ± 2.7 % of control group and the “Number of osteoclast (% of control group)” value (osteoclasts; 1 × 10^−8 mg/ml) was 100.9 ± 1.8 % of control group.
In the case of `O=c1c(-c2ccc(O)cc2)coc2cc(O)cc(O)c12` [Genistein, genistein], the “Weight” value ([2]; OVX rats, 1 week after operation (start of administration)) is reported as 242.12 ± 5.96 g, the “Body weight increase after ovariectomy (in words)” value ([2]; OVX rats, compared with control group, E2 1 μg/kg/day, quercetin or genistein 10 mg/kg/day) is reported as “rapid increase of body weight” and the “Weight” value ([2]; OVX rats, i.p. from 1 week after operation (E2 1 μg/kg/day; quercetin, genistein 10 mg/kg/day), 2 weeks after operation) is reported as 270.00 ± 8.05 g. The “Weight” value ([2]; OVX rats, i.p. from 1 week after operation (E2 1 μg/kg/day; quercetin, genistein 10 mg/kg/day), 3 weeks after operation) was 296.20 ± 7.68 g, the “Weight” value ([2]; OVX rats, i.p. from 1 week after operation (E2 1 μg/kg/day; quercetin, genistein 10 mg/kg/day), 4 weeks after operation) was 310.80 ± 7.80 g and the “Weight” value ([2]; OVX rats, i.p. from 1 week after operation (E2 1 μg/kg/day; quercetin, genistein 10 mg/kg/day), 5 weeks after operation) was 317.29 ± 7.93 g. For the same molecule, the “Weight” value ([2]; OVX rats, i.p. from 1 week after operation (E2 1 μg/kg/day; quercetin, genistein 10 mg/kg/day), 6 weeks after operation) was 327.19 ± 8.31 g, the “Weight” value ([2]; OVX rats, i.p. from 1 week after operation (E2 1 μg/kg/day; quercetin, genistein 10 mg/kg/day), 7 weeks after operation) was 332.80 ± 9.23 g and the “Weight” value ([2]; OVX rats, i.p. from 1 week after operation (E2 1 μg/kg/day; quercetin, genistein 10 mg/kg/day), 8 weeks after operation) was 336.38 ± 9.01 g. The “Weight” value ([2]; OVX rats, i.p. from 1 week after operation (E2 1 μg/kg/day; quercetin, genistein 10 mg/kg/day), 9 weeks after operation) was 342.71 ± 8.26 g, the “Weight” value ([2]; OVX rats, i.p. from 1 week after operation (E2 1 μg/kg/day; quercetin, genistein 10 mg/kg/day), 10 weeks after operation) was 347.23 ± 7.57 g and the “Weight” value ([2]; before operation (baseline, before administration)) was 217.55 ± 7.24 g. The Brain wet weight (ovariectomized rats; [3]) was 1.98 ± 0.03 g, the Kidney wet weight (ovariectomized rats; [3]) was 1.83 ± 0.03 g and the Liver wet weight (ovariectomized rats; [3]) was 10.03 ± 0.36 g. It also gave a Skin wet weight (ovariectomized rats; [3]) of 188 ± 9 mg, a Tibia wet weight (ovariectomized rats; [3]) of 0.537 ± 0.008 g and a Uterus wet weight (ovariectomized rats; [3]) of 106 ± 3 mg. The “Effect on weight of uterus / uterine hypertrophy (in words)” value (ovariectomized rats; 9 weeks i.p., compared with control group) was “did not give rise to change in weight of uterus”.
